Source: PMC12281475, “Mediator Kinase Inhibitor Selectivity and Activity in Colorectal Cancer” (ACS Chemical Biology, 2025)

Key:
[1] = biological target: T1, CDK1_CycA2 (Homo sapiens, UniProt P06493); assay: Radiometric protein kinase assay (33PanQinase), CDK1_CycA2; assay type: biochemical; conditions: for IC50: highest assay concentration 1.00E-05 M, read-out: IC50; for Hill Slope: slope of the IC50 fit
T1 construct: purchased Reaction Biology

[2] = biological target: T2, CDK1_CycB1 (Homo sapiens, UniProt P06493); assay: Radiometric protein kinase assay (33PanQinase), CDK1_CycB1; assay type: biochemical; conditions: for IC50: highest assay concentration 1.00E-05 M; for Hill Slope: slope of the IC50 fit
T2 construct: purchased Reaction Biology

[3] = biological target: T3, CDK1_CycE1 (Homo sapiens, UniProt P06493); assay: Radiometric protein kinase assay (33PanQinase), CDK1_CycE1; assay type: biochemical; conditions: for IC50: highest assay concentration 1.00E-05 M, read-out: IC50; for Hill Slope: slope of the IC50 fit
T3 construct: purchased Reaction Biology

[4] = biological target: CDK10_CycQ (Homo sapiens, UniProt Q15131); assay: Radiometric protein kinase assay (33PanQinase), CDK10_CycQ; assay type: biochemical; conditions: for IC50: highest assay concentration 1.00E-05 M; for Hill Slope: slope of the IC50 fit
[5] = biological target: CDK11B 357-795_CycK (Homo sapiens, UniProt P21127); assay: Radiometric protein kinase assay (33PanQinase), CDK11B 357-795_CycK; assay type: biochemical; conditions: for IC50: highest assay concentration 1.00E-05 M; for Hill Slope: slope of the IC50 fit
[6] = biological target: T4, CDK12_CycK (Homo sapiens, UniProt Q9NYV4); assay: Radiometric protein kinase assay (33PanQinase), CDK12_CycK; assay type: biochemical; conditions: for Hill Slope: slope of the IC50 fit
T4 construct: purchased Reaction Biology

[7] = biological target: T5, CDK13_CycK (Homo sapiens, UniProt Q14004); assay: Radiometric protein kinase assay (33PanQinase), CDK13_CycK; assay type: biochemical; conditions: slope of the IC50 fit
T5 construct: purchased Reaction Biology

[8] = biological target: CDK14_CycY (Homo sapiens, UniProt O94921); assay: Radiometric protein kinase assay (33PanQinase), CDK14_CycY; assay type: biochemical; conditions: for IC50: highest assay concentration 1.00E-05 M; for Hill Slope: slope of the IC50 fit
[9] = biological target: T6, CDK15_CycA2 (Homo sapiens, UniProt Q96Q40); assay: Radiometric protein kinase assay (33PanQinase), CDK15_CycA2; assay type: biochemical; conditions: for IC50: highest assay concentration 1.00E-05 M; for Hill Slope: slope of the IC50 fit
T6 construct: purchased Reaction Biology

[10] = biological target: T7, CDK16_CycY (Homo sapiens, UniProt Q00536); assay: Radiometric protein kinase assay (33PanQinase), CDK16_CycY; assay type: biochemical; conditions: for IC50: highest assay concentration 1.00E-05 M; for Hill Slope: slope of the IC50 fit
T7 construct: purchased Reaction Biology

[11] = biological target: CDK17_p35NCK (Homo sapiens, UniProt Q00537); assay: Radiometric protein kinase assay (33PanQinase), CDK17_p35NCK; assay type: biochemical; conditions: for IC50: highest assay concentration 1.00E-05 M; for Hill Slope: slope of the IC50 fit
[12] = biological target: CDK18_CycY (Homo sapiens, UniProt Q07002); assay: Radiometric protein kinase assay (33PanQinase), CDK18_CycY; assay type: biochemical; conditions: for IC50: highest assay concentration 1.00E-05 M; for Hill Slope: slope of the IC50 fit
[13] = biological target: T8, CDK19_CycC (Homo sapiens, UniProt Q9BWU1); assay: Radiometric protein kinase assay (33PanQinase), CDK19_CycC; assay type: biochemical; conditions: for Hill Slope: slope of the IC50 fit
T8 construct: purchased Reaction Biology

[14] = biological target: T9, CDK2_CycA2 (Homo sapiens, UniProt P24941); assay: Radiometric protein kinase assay (33PanQinase), CDK2_CycA2; assay type: biochemical; conditions: for IC50: highest assay concentration 1.00E-05 M, read-out: IC50; for Hill Slope: slope of the IC50 fit
T9 construct: purchased Reaction Biology

[15] = biological target: T10, CDK2_CycD1 (Homo sapiens, UniProt P24941); assay: Radiometric protein kinase assay (33PanQinase), CDK2_CycD1; assay type: biochemical; conditions: for Hill Slope: slope of the IC50 fit
T10 construct: purchased Reaction Biology

[16] = biological target: T11, CDK2_CycE1 (Homo sapiens, UniProt P24941); assay: Radiometric protein kinase assay (33PanQinase), CDK2_CycE1; assay type: biochemical; conditions: for IC50: highest assay concentration 1.00E-05 M, read-out: IC50; for Hill Slope: slope of the IC50 fit
T11 construct: purchased Reaction Biology

[17] = biological target: CDK20_CycH (Homo sapiens, UniProt Q8IZL9); assay: Radiometric protein kinase assay (33PanQinase), CDK20_CycH; assay type: biochemical; conditions: for IC50: highest assay concentration 1.00E-05 M; for Hill Slope: slope of the IC50 fit
[18] = biological target: CDK20_CycT1 (Homo sapiens, UniProt Q8IZL9); assay: Radiometric protein kinase assay (33PanQinase), CDK20_CycT1; assay type: biochemical; conditions: for IC50: highest assay concentration 1.00E-05 M; for Hill Slope: slope of the IC50 fit
[19] = biological target: T12, CDK3_CycC (Homo sapiens, UniProt Q00526); assay: Radiometric protein kinase assay (33PanQinase), CDK3_CycC; assay type: biochemical; conditions: for Hill Slope: slope of the IC50 fit
T12 construct: purchased Reaction Biology

[20] = biological target: T13, CDK3_CycE1 (Homo sapiens, UniProt Q00526); assay: Radiometric protein kinase assay (33PanQinase), CDK3_CycE1; assay type: biochemical; conditions: slope of the IC50 fit
T13 construct: purchased Reaction Biology

[21] = biological target: T14, CDK4_CycD1 (Homo sapiens, UniProt P11802); assay: Radiometric protein kinase assay (33PanQinase), CDK4_CycD1; assay type: biochemical; conditions: for IC50: highest assay concentration 1.00E-05 M; for Hill Slope: slope of the IC50 fit
T14 construct: purchased Reaction Biology

[22] = biological target: T15, CDK4_CycD2 (Homo sapiens, UniProt P11802); assay: Radiometric protein kinase assay (33PanQinase), CDK4_CycD2; assay type: biochemical; conditions: for IC50: highest assay concentration 1.00E-05 M; for Hill Slope: slope of the IC50 fit
T15 construct: purchased Reaction Biology

[23] = biological target: T16, CDK4_CycD3 (Homo sapiens, UniProt P11802); assay: Radiometric protein kinase assay (33PanQinase), CDK4_CycD3; assay type: biochemical; conditions: for IC50: highest assay concentration 1.00E-05 M; for Hill Slope: slope of the IC50 fit
T16 construct: purchased Reaction Biology

[24] = biological target: T17, CDK5_p25NCK (Homo sapiens, UniProt Q00535); assay: Radiometric protein kinase assay (33PanQinase), CDK5_p25NCK; assay type: biochemical; conditions: for Hill Slope: slope of the IC50 fit
T17 construct: purchased Reaction Biology

[25] = biological target: T18, CDK5_p35NCK (Homo sapiens, UniProt Q00535); assay: Radiometric protein kinase assay (33PanQinase), CDK5_p35NCK; assay type: biochemical; conditions: for IC50: highest assay concentration 1.00E-05 M; for Hill Slope: slope of the IC50 fit
T18 construct: purchased Reaction Biology

[26] = biological target: T19, CDK6_CycD1 (Homo sapiens, UniProt Q00534); assay: Radiometric protein kinase assay (33PanQinase), CDK6_CycD1; assay type: biochemical; conditions: for Hill Slope: slope of the IC50 fit
T19 construct: purchased Reaction Biology

[27] = biological target: T20, CDK6_CycD2 (Homo sapiens, UniProt Q00534); assay: Radiometric protein kinase assay (33PanQinase), CDK6_CycD2; assay type: biochemical; conditions: for IC50: highest assay concentration 1.00E-05 M; for Hill Slope: slope of the IC50 fit
T20 construct: purchased Reaction Biology

[28] = biological target: T21, CDK6_CycD3 (Homo sapiens, UniProt Q00534); assay: Radiometric protein kinase assay (33PanQinase), CDK6_CycD3; assay type: biochemical; conditions: for Hill Slope: slope of the IC50 fit
T21 construct: purchased Reaction Biology

[29] = biological target: T22, CDK7_CycH_MAT1 (Homo sapiens, UniProt P50613); assay: Radiometric protein kinase assay (33PanQinase), CDK7_CycH_MAT1; assay type: biochemical; conditions: for IC50: highest assay concentration 1.00E-05 M; for Hill Slope: slope of the IC50 fit
T22 construct: purchased Reaction Biology

[30] = biological target: T23, CDK8_CycC (Homo sapiens, UniProt P49336); assay: Radiometric protein kinase assay (33PanQinase), CDK8_CycC; assay type: biochemical; conditions: for Hill Slope: slope of the IC50 fit
T23 construct: purchased Reaction Biology

[31] = biological target: T24, CDK9_CycK (Homo sapiens, UniProt P50750); assay: Radiometric protein kinase assay (33PanQinase), CDK9_CycK; assay type: biochemical; conditions: for IC50: highest assay concentration 1.00E-05 M; for Hill Slope: slope of the IC50 fit
T24 construct: purchased Reaction Biology

[32] = biological target: T25, CDK9_CycT1 (Homo sapiens, UniProt P50750); assay: Radiometric protein kinase assay (33PanQinase), CDK9_CycT1; assay type: biochemical; conditions: for IC50: highest assay concentration 1.00E-05 M; for Hill Slope: slope of the IC50 fit
T25 construct: purchased Reaction Biology

[33] = system: CDK8; parameters: method as in numbers not given; conditions: reporter displacement assay; previously characterized compounds, no method in this paper; ref numbers not given; read-out: IC50 for in vitro CDK8 binding; cited from earlier work
[34] = highest assay concentration 1.00E-05 M

T8 sequence (Q9BWU1 whole entry): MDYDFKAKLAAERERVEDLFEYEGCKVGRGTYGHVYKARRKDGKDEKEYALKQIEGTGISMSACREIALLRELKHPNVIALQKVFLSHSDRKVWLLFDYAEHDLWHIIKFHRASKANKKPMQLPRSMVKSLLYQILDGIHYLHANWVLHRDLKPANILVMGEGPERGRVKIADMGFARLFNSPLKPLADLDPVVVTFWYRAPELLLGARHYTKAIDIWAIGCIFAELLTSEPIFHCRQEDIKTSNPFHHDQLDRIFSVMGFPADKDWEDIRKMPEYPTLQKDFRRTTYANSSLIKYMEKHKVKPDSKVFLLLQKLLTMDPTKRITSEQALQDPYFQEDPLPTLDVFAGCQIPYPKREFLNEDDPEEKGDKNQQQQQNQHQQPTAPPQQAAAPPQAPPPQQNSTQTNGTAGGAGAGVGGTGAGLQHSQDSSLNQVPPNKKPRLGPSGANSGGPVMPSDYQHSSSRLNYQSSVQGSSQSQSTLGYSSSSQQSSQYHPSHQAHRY
T8 sequence (P24863 whole entry partner): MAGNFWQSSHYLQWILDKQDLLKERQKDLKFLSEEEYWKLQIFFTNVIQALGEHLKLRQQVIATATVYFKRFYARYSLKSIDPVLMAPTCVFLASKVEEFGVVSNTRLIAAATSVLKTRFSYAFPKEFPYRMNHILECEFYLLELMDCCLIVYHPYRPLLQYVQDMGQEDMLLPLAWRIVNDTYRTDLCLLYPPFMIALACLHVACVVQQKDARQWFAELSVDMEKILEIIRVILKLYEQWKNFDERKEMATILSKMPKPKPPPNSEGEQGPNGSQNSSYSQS
CDK18_CycY, sequence (Q07002 whole entry): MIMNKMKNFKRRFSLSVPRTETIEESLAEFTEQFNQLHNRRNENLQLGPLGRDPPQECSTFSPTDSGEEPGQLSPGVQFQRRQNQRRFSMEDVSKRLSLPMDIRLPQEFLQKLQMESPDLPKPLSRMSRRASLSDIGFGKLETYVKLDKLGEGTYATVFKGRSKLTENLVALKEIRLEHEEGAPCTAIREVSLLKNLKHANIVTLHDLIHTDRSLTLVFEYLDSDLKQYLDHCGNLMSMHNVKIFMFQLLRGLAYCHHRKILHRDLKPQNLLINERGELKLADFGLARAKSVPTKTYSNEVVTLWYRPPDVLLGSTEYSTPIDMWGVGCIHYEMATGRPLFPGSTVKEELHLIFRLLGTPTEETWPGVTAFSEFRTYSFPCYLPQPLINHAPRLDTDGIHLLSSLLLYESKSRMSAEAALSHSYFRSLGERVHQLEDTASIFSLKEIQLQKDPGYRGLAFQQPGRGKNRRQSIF
CDK18_CycY, sequence (Q8ND76 whole entry partner): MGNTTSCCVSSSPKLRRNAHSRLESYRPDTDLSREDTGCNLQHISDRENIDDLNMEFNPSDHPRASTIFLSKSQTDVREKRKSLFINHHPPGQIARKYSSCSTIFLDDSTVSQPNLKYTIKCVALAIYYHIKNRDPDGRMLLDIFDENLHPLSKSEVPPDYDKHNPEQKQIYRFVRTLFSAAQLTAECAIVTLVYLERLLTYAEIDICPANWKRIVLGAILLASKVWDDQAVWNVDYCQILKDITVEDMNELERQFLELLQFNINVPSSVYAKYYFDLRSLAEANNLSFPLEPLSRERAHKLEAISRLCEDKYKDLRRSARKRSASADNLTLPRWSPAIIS
CDK11B 357-795_CycK, sequence (P21127 357-795): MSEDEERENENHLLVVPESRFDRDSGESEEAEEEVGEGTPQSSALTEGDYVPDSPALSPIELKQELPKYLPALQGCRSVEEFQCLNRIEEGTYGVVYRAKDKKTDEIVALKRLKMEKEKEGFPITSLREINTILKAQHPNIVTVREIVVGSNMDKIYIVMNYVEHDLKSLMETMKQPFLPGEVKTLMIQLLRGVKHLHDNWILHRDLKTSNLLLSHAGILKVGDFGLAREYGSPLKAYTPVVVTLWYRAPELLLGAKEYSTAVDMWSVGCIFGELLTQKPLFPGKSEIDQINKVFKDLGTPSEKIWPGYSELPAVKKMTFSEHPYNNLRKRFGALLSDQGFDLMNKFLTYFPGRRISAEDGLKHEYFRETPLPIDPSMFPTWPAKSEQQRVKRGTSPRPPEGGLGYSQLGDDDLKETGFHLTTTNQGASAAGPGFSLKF
T2 sequence (P06493 whole entry): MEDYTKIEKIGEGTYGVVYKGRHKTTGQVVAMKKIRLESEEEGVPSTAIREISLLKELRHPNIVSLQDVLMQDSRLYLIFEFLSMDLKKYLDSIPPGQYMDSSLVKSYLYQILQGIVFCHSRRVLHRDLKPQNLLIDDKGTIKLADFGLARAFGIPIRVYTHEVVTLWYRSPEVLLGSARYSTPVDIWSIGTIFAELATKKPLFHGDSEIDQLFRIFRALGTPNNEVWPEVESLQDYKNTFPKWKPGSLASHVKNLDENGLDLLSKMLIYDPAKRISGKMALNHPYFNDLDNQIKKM
T2 sequence (P14635 whole entry partner): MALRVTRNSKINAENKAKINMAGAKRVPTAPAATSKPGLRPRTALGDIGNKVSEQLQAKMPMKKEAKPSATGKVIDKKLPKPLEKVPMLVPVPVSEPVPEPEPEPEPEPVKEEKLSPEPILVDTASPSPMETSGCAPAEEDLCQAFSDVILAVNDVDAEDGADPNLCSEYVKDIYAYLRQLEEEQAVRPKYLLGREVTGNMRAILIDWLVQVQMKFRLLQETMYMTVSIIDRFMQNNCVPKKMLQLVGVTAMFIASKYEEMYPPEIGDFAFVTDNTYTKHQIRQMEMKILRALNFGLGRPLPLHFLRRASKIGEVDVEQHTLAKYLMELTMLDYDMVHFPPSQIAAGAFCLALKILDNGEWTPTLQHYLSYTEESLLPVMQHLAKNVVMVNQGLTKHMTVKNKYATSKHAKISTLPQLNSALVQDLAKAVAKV
CDK17_p35NCK, sequence (Q00537 whole entry): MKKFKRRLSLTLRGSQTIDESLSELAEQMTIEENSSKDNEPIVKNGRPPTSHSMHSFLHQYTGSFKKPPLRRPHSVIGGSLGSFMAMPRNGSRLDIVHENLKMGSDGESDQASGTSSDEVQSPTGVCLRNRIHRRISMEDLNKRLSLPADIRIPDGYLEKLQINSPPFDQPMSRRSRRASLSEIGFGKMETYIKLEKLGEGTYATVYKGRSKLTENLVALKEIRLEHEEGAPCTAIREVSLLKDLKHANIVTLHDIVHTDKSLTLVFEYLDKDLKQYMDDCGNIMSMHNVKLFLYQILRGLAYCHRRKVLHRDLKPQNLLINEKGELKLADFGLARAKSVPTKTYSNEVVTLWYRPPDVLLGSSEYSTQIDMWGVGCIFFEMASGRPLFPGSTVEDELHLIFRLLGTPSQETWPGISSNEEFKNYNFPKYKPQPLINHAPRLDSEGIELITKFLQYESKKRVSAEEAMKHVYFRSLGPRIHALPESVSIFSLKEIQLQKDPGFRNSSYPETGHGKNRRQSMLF
T15 sequence (P11802 whole entry): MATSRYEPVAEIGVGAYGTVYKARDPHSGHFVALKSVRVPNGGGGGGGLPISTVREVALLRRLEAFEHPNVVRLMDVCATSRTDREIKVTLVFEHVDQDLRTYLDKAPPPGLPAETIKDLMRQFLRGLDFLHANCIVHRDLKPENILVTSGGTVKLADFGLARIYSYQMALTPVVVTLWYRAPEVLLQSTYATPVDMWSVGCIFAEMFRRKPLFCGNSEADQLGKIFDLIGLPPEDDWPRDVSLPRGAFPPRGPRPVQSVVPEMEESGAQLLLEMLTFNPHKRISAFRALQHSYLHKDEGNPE
T15 sequence (P30279 whole entry partner): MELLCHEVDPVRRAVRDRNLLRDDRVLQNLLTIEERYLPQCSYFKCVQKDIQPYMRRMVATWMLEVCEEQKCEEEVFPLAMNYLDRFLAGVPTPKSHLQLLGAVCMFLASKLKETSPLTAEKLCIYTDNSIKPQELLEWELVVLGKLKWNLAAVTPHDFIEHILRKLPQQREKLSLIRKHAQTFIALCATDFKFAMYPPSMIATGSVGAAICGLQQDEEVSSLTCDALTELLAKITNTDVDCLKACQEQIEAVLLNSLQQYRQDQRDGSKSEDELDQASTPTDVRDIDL
T16 sequence (P11802 whole entry): as the sequence (P11802 whole entry) above
T16 sequence (P30281 whole entry partner): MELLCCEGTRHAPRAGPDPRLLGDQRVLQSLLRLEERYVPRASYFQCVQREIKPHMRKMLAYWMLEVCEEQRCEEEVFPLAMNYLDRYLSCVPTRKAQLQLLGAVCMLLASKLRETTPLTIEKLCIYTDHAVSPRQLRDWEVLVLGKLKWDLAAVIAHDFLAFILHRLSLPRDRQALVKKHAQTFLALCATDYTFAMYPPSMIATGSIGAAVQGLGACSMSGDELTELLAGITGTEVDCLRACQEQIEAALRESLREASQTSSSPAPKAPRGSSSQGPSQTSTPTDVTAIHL
CDK20_CycH, sequence (Q8IZL9 whole entry): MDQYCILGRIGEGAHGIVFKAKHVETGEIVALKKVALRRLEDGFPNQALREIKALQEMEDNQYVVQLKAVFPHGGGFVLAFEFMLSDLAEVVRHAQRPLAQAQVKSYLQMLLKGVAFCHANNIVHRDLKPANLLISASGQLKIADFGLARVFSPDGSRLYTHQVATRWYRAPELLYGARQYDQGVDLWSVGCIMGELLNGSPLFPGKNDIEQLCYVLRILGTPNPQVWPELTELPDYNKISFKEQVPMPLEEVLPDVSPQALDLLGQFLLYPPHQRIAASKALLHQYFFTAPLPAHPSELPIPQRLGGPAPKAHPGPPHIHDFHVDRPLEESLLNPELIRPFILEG
CDK20_CycT1, sequence (Q8IZL9 whole entry): as above

## Cn1cc(-c2ccc(-c3cncc(Cl)c3N3CCC4(CCNC4=O)CC3)cc2)cn1 [CCT251545]
[1]
  IC50: > 10 µM
  Hill Slope: -0.78
[2]
  IC50: > 10 µM
  Hill Slope: -0.74
[3]
  IC50: > 10 µM
  Hill Slope: -0.72
[4]
  IC50: > 10 µM
  Hill Slope: -0.51
[5]
  IC50: > 10 µM
  Hill Slope: -8.69
[6]
  Hill Slope: -0.07
[7]
  Hill Slope: 0.15
[8]
  IC50: > 10 µM
  Hill Slope: -0.82
[9]
  IC50: > 10 µM
  Hill Slope: -0.34
[10]
  IC50: > 10 µM
  Hill Slope: -1.1
[11]
  IC50: > 10 µM
  Hill Slope: -0.17
[12]
  IC50: > 10 µM
  Hill Slope: -0.5
[13]
  IC50: 277 nM
  Hill Slope: -0.53
[14]
  IC50: > 10 µM
  Hill Slope: -0.46
[15]; highest assay concentration 1.00E-05 M, read-out: IC50
  IC50: > 10 µM
[15]
  Hill Slope: -0.29
[16]
  IC50: > 10 µM
  Hill Slope: -0.5
[17]
  IC50: > 10 µM
  Hill Slope: -0.44
[18]
  IC50: > 10 µM
  Hill Slope: -0.39
[19]
  IC50: > 10 µM
  Hill Slope: -0.47
[20]
  Hill Slope: -0.16
[21]
  IC50: > 10 µM
  Hill Slope: -0.31
[22]
  IC50: > 10 µM
  Hill Slope: -0.3
[23]
  IC50: > 10 µM
  Hill Slope: -0.27
[24]; [34]
  IC50: > 10 µM
[24]
  Hill Slope: -0.59
[25]
  IC50: > 10 µM
  Hill Slope: -1.62
[26]; [34]
  IC50: > 10 µM
[26]
  Hill Slope: -1.25
[27]
  IC50: > 10 µM
  Hill Slope: -0.64
[28]
  Hill Slope: -0.2
[29]
  IC50: > 10 µM
  Hill Slope: -0.59
[30]
  IC50: 84.1 nM
  Hill Slope: -0.56
[31]
  IC50: 3.81 µM
  Hill Slope: -0.78
[32]
  IC50: 6.07 µM
  Hill Slope: -0.94
[33]
  IC50: 5 nM

## Cn1ncc2cc(-c3cnc(N)c(Cl)c3N3CCC4(CCNC4=O)CC3)ccc21 [CCT251921]
[1]
  IC50: > 10 µM
  Hill Slope: -0.53
[2]
  IC50: > 10 µM
  Hill Slope: -0.32
[3]
  IC50: > 10 µM
  Hill Slope: -0.77
[4]
  IC50: > 10 µM
  Hill Slope: -0.72
[5]
  IC50: > 10 µM
  Hill Slope: -0.41
[6]; [34]
  IC50: > 10 µM
[6]
  Hill Slope: -0.32
[7]
  Hill Slope: 0.03
[8]
  IC50: > 10 µM
  Hill Slope: -0.73
[9]
  IC50: > 10 µM
  Hill Slope: -0.85
[10]
  IC50: > 10 µM
  Hill Slope: -0.3
[11]
  IC50: > 10 µM
  Hill Slope: -0.39
[12]
  IC50: > 10 µM
  Hill Slope: -0.84
[13]
  IC50: 409 nM
  Hill Slope: -0.45
[14]
  IC50: > 10 µM
  Hill Slope: -0.89
[15]
  Hill Slope: 0
[16]
  IC50: > 10 µM
  Hill Slope: -0.94
[17]
  IC50: > 10 µM
  Hill Slope: -0.38
[18]
  IC50: > 10 µM
  Hill Slope: -0.33
[19]
  IC50: > 10 µM
  Hill Slope: -0.55
[20]
  Hill Slope: -0.12
[21]
  IC50: > 10 µM
  Hill Slope: -0.37
[22]
  IC50: > 10 µM
  Hill Slope: -0.33
[23]
  IC50: > 10 µM
  Hill Slope: -0.37
[24]
  Hill Slope: -0.17
[25]
  IC50: > 10 µM
  Hill Slope: -0.4
[26]
  Hill Slope: -0.13
[27]
  IC50: > 10 µM
  Hill Slope: -0.59
[28]; [34]
  IC50: > 10 µM
[28]
  Hill Slope: -0.33
[29]
  IC50: > 10 µM
  Hill Slope: -0.33
[30]
  Hill Slope: -0.55
[31]
  IC50: > 10 µM
  Hill Slope: -0.77
[32]
  IC50: > 10 µM
  Hill Slope: -1.01
[33]
  IC50: 4.9 nM
